# PMC4922569, “Antifibrotic Effects of the Dual CCR2/CCR5 Antagonist Cenicriviroc in Animal Models of Liver and Kidney Fibrosis” (PLoS ONE, 2016)
# Structures can show the parent of a compound that is named as a salt.
# What was measured:
# [1] = Body and kidney weights and clinical condition, UUO model; assay type: in vivo; conditions: for Contralateral kidney weight / Final body weight / Obstructed kidney weight: UUO model, average±SEM
# Procedure: Male CD-1 mice (n = 51; 7–8 weeks of age; Charles River Laboratories, USA) were allocated to weight-matched treatment groups on Day -1 (1 day prior to either sham [one group] or permanent right UUO surgery [five groups] via aseptic laparotomy). From Days -1 to 4, mice received phosphate-buffered saline (PBS) IP QD, apart from a positive-control group, which received 1D11 (anti-TGF-beta1 antibody) 3 mg/kg IP QD. From Days 0 to 5, mice received vehicle control (sham surgery, UUO-control and UUO+positive-control groups) or CVC 7 mg/kg/day (CVC7), CVC20 or CVC100 PO BID (S1 Table). […] Study endpoints included: body and kidney weights, mRNA expression (TGF-beta, connective tissue growth factor, MCP-1, alpha-SMA, collagen 1a1, fibronectin-1 and collagen 3a1), extracellular matrix protein in renal cortical tissue (hydroxyproline content) and histological analyses. Blood and tissue samples were collected from anesthetized mice 4 hours post-dose on Day 5, prior to sacrifice. A mid-transverse section of the right obstructed kidney was collected for histological analysis.
# Body weight (measured before and during treatment) and sacrificed animal body and liver/kidney/spleen weights were recorded.
# diet-induced NASH = assay: Mouse model of diet-induced NASH; assay type: in vivo; conditions: for NAS, mean (±SD): vehicle 5.3 (±0.5); for Liver hydroxyproline content: vehicle 0.75±0.18; for Percentage of inflammation area (F4/80+ area): vehicle 4.99±1.10; for M1/M2 ratio (F4/80+CD16/32+ / F4/80+CD206+): vehicle 99.6±20.2; for Reduction in modified fibrosis area (perivascular space subtracted) vs vehicle control / Reduction in percentage of fibrosis area vs vehicle control: p < 0.01; for Plasma CCL2 levels: vehicle 60±4
# Procedure: NASH was induced in male C57BL/6 mice (Charles River Laboratories, Japan) via subcutaneous injection of 200 μg of streptozotocin 2 days post-birth (causing mild islet inflammation and islet destruction) plus a high-fat diet (57 kcal% fat) from 4 weeks of age (sequentially causing fatty changes to the liver, NASH and fibrosis). From Weeks 6 to 9, three groups (n = 9/group) received vehicle control, CVC20 or CVC100 BID PO (S1 Table). At Week 9, six animals per group were sacrificed for assessment of liver fibrosis and Non-Alcoholic Fatty Liver Disease (NAFLD) Activity Score (NAS). The animals were sacrificed by exsanguination through direct cardiac puncture under ether anesthesia. Study endpoints included: body and liver weights, plasma biochemistry (e.g. ALT and CCL2), extracellular matrix protein in liver tissue (hydroxyproline content), mRNA expression (collagen type 1, tumor necrosis factor-alpha, MCP-1, TIMP1) and histopathological analyses. Blood samples were collected and plasma samples derived for biochemistry assessments. Sections were cut from paraffin blocks of liver tissue, prefixed in Bouin’s solution and stained with H&E for histological examination.
# In the TAA model, serum ALT/AST levels were measured using VITROS® 5,1 FS (Ortho Clinical Diagnostics, USA), with plasma diluted with VITROS® 7% bovine serum albumin if needed. In the NASH model, plasma ALT levels were measured by FUJI DRI-CHEM 7000 (Fujifilm, Japan) and plasma CCL2 concentration quantified by the mouse CCL2/JE/MCP-1 immunoassay kit (R&D, USA).
# In the NASH model, bright field images of picrosirius red-stained sections were captured around the central vein using a digital camera (DFC280; Leica, Germany) at 200x magnification; the ‘positive’ areas in five fields/sections were measured using ImageJ software (National Institutes of Health, USA). Perivascular areas were subtracted from the total positive areas for each field (modified fibrosis area). The NAS, a histological tool developed to assess disease severity in humans, was assessed in a blinded fashion and calculated according to Kleiner’s criteria on H&E-stained sections. It is based on the semi-quantification of steatosis, lobular inflammation and hepatocellular ballooning.
# In the NASH model, liver sections fixed in acetone were incubated with anti-F4/80 antibody (BMA Biomedicals, Switzerland) to assess inflammation. Double immunohistochemical analyses were performed with anti-CD206 (RayBiotec, USA) or anti-CD16/32 (BD Biosciences, USA) antibodies. Cells were counted and the M1/M2 polarization ratio was calculated as mean percentage of F4/80+CD16/32+ cells/mean percentage of F4/80+CD206+ cells.
# In the NASH model, frozen liver samples were subjected to an alkaline-acid hydrolysis, then centrifuged, and the supernatant collected. Hydroxyproline content was quantified against a hydroxyproline standard curve, with a BCA protein assay kit (Thermo Fisher Scientific, USA) used to normalize the calculated hydroxyproline values.
# In the hepatic-fibrosis models, RNA was extracted from liver tissues and purified, and 1 μg of total mRNA was reverse-transcribed into complementary DNA. Expression levels were determined by quantitative polymerase chain reaction (PCR) (iQ™ SYBR® Green Supermix [Bio-Rad Laboratories, USA] on the LightCycler® 480 Real-Time PCR System [Roche, Switzerland]) in the TAA model at Week 8 (early intervention and established fibrosis) and Week 12 (cirrhosis reversal), and by real-time PCR (PCR Dice® and SYBR® Premix Ex Taq™ [Takara Bio Inc., Japan]) at Week 9 in the NASH model.
# Relative mRNA expression levels were normalized to the following reference genes: TAA model, GAPDH; NASH model, 36B4 (gene symbol: Rplp0); UUO model, hypoxanthine phosphoribosyltransferase.
# In the NASH model, data are expressed as mean ±standard deviation (SD). Statistical analyses were performed using the Bonferroni multiple comparison test (GraphPad Prism® 4 software).
# [2] = CVC100 PO BID, UUO surgery, group terminated due to poor clinical condition
structure (smiles),measurement,setting,value
"CCCCOCCOc1ccc(-c2ccc3c(c2)/C=C(/C(=O)Nc2ccc([S@@+]([O-])Cc4cncn4CCC)cc2)CCCN3CC(C)C)cc1 [CVC, cenicriviroc mesylate]",Decrease in body weight vs UUO control,"[1]; CVC20, Day 5, p < 0.05",5%
same,Animals died prior to end of study,[1]; [2],6/9
same,Animals euthanized prior to end of study,[1]; [2],3/9
same,Contralateral kidney weight,[1]; CVC 7 mg/kg/day,221.0 ± 10.1 mg
same,Final body weight,[1]; CVC 7 mg/kg/day,26.3 ± 0.5 g
same,Obstructed kidney weight,[1]; CVC 7 mg/kg/day,232.0 ± 11.9 mg
same,Contralateral kidney weight,[1]; CVC 20 mg/kg/day,202.4 ± 6.1 mg
same,Final body weight,[1]; CVC 20 mg/kg/day,25.7 ± 0.4 g
same,Obstructed kidney weight,[1]; CVC 20 mg/kg/day,217.0 ± 6.7 mg
same,"Hepatocyte ballooning score 0, number of animals","diet-induced NASH; CVC20, n = 6",0
same,"Hepatocyte ballooning score 1, number of animals","diet-induced NASH; CVC20, n = 6",3
same,"Hepatocyte ballooning score 2, number of animals","diet-induced NASH; CVC20, n = 6",3
same,"Lobular inflammation score 0, number of animals","diet-induced NASH; CVC20, n = 6",0
same,"Lobular inflammation score 1, number of animals","diet-induced NASH; CVC20, n = 6",3
same,"Lobular inflammation score 2, number of animals","diet-induced NASH; CVC20, n = 6",3
same,"Lobular inflammation score 3, number of animals","diet-induced NASH; CVC20, n = 6",0
same,"Steatosis score 0, number of animals","diet-induced NASH; CVC20, n = 6",0
same,"Steatosis score 1, number of animals","diet-induced NASH; CVC20, n = 6",6
same,"Steatosis score 2, number of animals","diet-induced NASH; CVC20, n = 6",0
same,"Steatosis score 3, number of animals","diet-induced NASH; CVC20, n = 6",0
same,"NAS, mean (±SD)","diet-induced NASH; CVC20, n = 6, p = 0.0013",4.0 (±0.6)
same,Reduction in collagen type 1 mRNA expression vs vehicle control,"diet-induced NASH; CVC20, p < 0.05",37%
same,Liver hydroxyproline content,diet-induced NASH; CVC20,0.63 ± 0.05 µg/mg
same,Percentage of inflammation area (F4/80+ area),"diet-induced NASH; CVC20, not significant",4.77±1.02%
same,M1/M2 ratio (F4/80+CD16/32+ / F4/80+CD206+),"diet-induced NASH; CVC20, not significant",112.3±17.0%
same,Reduction in modified fibrosis area (perivascular space subtracted) vs vehicle control,diet-induced NASH; CVC20 BID PO Weeks 6-9,52.5%
same,Reduction in percentage of fibrosis area vs vehicle control,diet-induced NASH; CVC20 BID PO Weeks 6-9,40.0%
same,Plasma CCL2 levels,"diet-induced NASH; CVC20 BID PO Weeks 6-9, not significant",68 ± 16 pg/mL
same,"Hepatocyte ballooning score 0, number of animals","diet-induced NASH; CVC100, n = 6",1
same,"Hepatocyte ballooning score 1, number of animals","diet-induced NASH; CVC100, n = 6",2
same,"Hepatocyte ballooning score 2, number of animals","diet-induced NASH; CVC100, n = 6",3
same,"Lobular inflammation score 0, number of animals","diet-induced NASH; CVC100, n = 6",0
same,"Lobular inflammation score 1, number of animals","diet-induced NASH; CVC100, n = 6",3
same,"Lobular inflammation score 2, number of animals","diet-induced NASH; CVC100, n = 6",3
same,"Lobular inflammation score 3, number of animals","diet-induced NASH; CVC100, n = 6",0
same,"Steatosis score 0, number of animals","diet-induced NASH; CVC100, n = 6",1
same,"Steatosis score 1, number of animals","diet-induced NASH; CVC100, n = 6",5
same,"Steatosis score 2, number of animals","diet-induced NASH; CVC100, n = 6",0
same,"Steatosis score 3, number of animals","diet-induced NASH; CVC100, n = 6",0
same,"NAS, mean (±SD)","diet-induced NASH; CVC100, n = 6, p = 0.0009",3.7 (±0.8)
same,Reduction in collagen type 1 mRNA expression vs vehicle control,"diet-induced NASH; CVC100, not statistically significant",27%
same,Liver hydroxyproline content,diet-induced NASH; CVC100,0.62 ± 0.09 µg/mg
same,M1/M2 ratio (F4/80+CD16/32+ / F4/80+CD206+),"diet-induced NASH; CVC100, not significant",125.1±21.9%
same,Reduction in modified fibrosis area (perivascular space subtracted) vs vehicle control,diet-induced NASH; CVC100 BID PO Weeks 6-9,67.2%
same,Reduction in percentage of fibrosis area vs vehicle control,diet-induced NASH; CVC100 BID PO Weeks 6-9,41.8%
same,Plasma CCL2 levels,"diet-induced NASH; CVC100 BID PO Weeks 6-9, significant increase",91 ± 14 pg/mL
same,Percentage of inflammation area (F4/80+ area),"diet-induced NASH; CVC-high, not significant",4.96±0.60%
same,"mRNA expression levels of the other fibrosis markers tested, vehicle control vs CVC groups","diet-induced NASH; NASH model, Week 9",no statistically significant differences
same,Plasma ALT levels vs vehicle control,"diet-induced NASH; both CVC doses (CVC20, CVC100 BID PO Weeks 6-9), p < 0.05",significantly decreased
